In patent US20100143270A1, “THERAPEUTIC COTININE COMPOSITIONS” (University of Louisville Research Foubdation, priority 2007, published 2010):
“Also recorded” adds a separate entry of the source.

What was measured:
[1] = test system: THP-1 cells; assay: IL-10 release by LPS-stimulated THP-1 cells (ELISA); type: cell-based
Protocol: (§1) FIG. 11. The anti-inflammatory potential of cotinine is a GSK-3β-dependent but NF-κB-independent phenomenon. THP-1 Blue cells are stably transfected with a reporter plasmid expressing secreted embryonic alkaline phosphatase (SEAP) gene under the control of a NF-κB-inducible promoter. […] Cell-free supernatants were harvested by centrifugation and relative expression levels of SEAP (reflecting NF-κB; THP-1 Blue; circles) and IL-10 (THP-1; bars) were determined by spectrophotometric analysis of SEAP activity and ELISA, respectively.
(§2) THP-1 Blue cells are monocyte-like cells that have been stably transfected with a reporter plasmid expressing secreted embryonic alkaline phosphatase (SEAP) gene under the control of a NF-κB-inducible promoter. […] Cell-free supernatants were harvested by centrifugation and relative expression levels of NF-κB and IL-10 were determined by spectrophotometric analysis of SEAP activity and ELISA, respectively.
Levels of phosphorylated Akt and phoshorylated GSK-3β following cotinine (0-100 ng ml^−1) and/or E. coli LPS (1 μg ml^−1) treatment were determined by western blot using whole-cell lysates (20 μg) with probing for Akt using a phospho-specific Akt (Ser473) antibody; probing for GSK-3β using a phospho-specific GSK-3β (Ser9; denoted pGSK-3β) antibody; with the blots stripped and re-probed for total p38 to ensure equivalent loading. Antibodies were purchased from Cell Signaling, Beverly, Mass. Blots were visualized by enhanced chemiluminescence. The importance of the PI3K-dependent anti-inflammatory pathway in cotinine-induced inflammatory suppression was also established by pharmacological inhibition of PI3K and GSK-3β using the PI3K antagonists LY294002 (25 μM; Calbiochem®, San Diego, Calif.) and wortmannin (100 nM, Calbiochem); and the GSK-3β inhibitor SB216763 (6 μM; Sigma). […] Therefore, cells were also analyzed for cotinine-induced PI3K activation by, assaying the ability of PI3K to produce PIP3. Levels of PIP3 were determined by ELISA using a competitive inhibition assay (Echelon Bioscience, Salt Lake City, Utah). […]

[2] = test system: neutrophils; conditions: cited from earlier work
[3] = test system: GSK-3β (Ser9); assay: Phosphorylated GSK-3β western blot in monocytes; type: cell-based, human; conditions: P. gingivalis stimulated monocytes
Protocol: (§3) Antibodies were purchased from Cell Signaling, Beverly, Mass. Blots were visualized by enhanced chemiluminescence. The importance of the PI3K-dependent anti-inflammatory pathway in cotinine-induced inflammatory suppression was also established by pharmacological inhibition of PI3K and GSK-3β using the PI3K antagonists LY294002 (25 μM; Calbiochem®, San Diego, Calif.) and wortmannin (100 nM, Calbiochem); and the GSK-3β inhibitor SB216763 (6 μM; Sigma). Activated PI3K produces PIP3 that, in turn, activates downstream signaling components of the PI3K pathway. Therefore, cells were also analyzed for cotinine-induced PI3K activation by, assaying the ability of PI3K to produce PIP3. Levels of PIP3 were determined by ELISA using a competitive inhibition assay (Echelon Bioscience, Salt Lake City, Utah). The specific PI3K inhibitor LY294002 was used at 25 μM and served as a control to block PI3K activity.

[4] = test system: P. gingivalis-stimulated human monocytes; assay: TNF release by P. gingivalis-stimulated human monocytes (ELISA); type: cell-based; conditions: for TNF release compared to cells stimulated with P. gingivalis alone: 2 h pre-treatment with nicotine or cotinine, P. gingivalis MOI=10 for 20 h, dose-dependent
[5] = test system: LPS-stimulated monocytes; assay: IL-10 release by LPS-stimulated human monocytes (ELISA); type: cell-based
[6] = test system: PI3K; assay: PI3K activation in monocytes measured as PIP3 (competitive ELISA); type: cell-based, human; conditions: LPS 1 μg ml^−1 60 minutes
[7] = test system: THP-1 or THP-1 Blue cells; assay: Viability of THP-1 or THP-1 Blue cells; type: cell-based; conditions: cotinine 100 ng ml^−1
[8] = test system: nicotinic receptors in the brain; conditions: cited from earlier work
[9] = cited from earlier work; for Terminal elimination half-life: in vivo
[10] = test system: striatal dopamine release; conditions: cited from earlier work
[11] = test system: primary monocytes; assay: Viability of primary monocytes
Protocol: Monocytes were pre-treated for 2 h with nicotine (triangles) or cotinine (squares) then stimulated with P. gingivalis (MOI=10) for 20 h. Cell-free supernatants were harvested by centrifugation and levels of TNF-α were determined by ELISA.
(A-E) Control monocytes (closed squares) and monocytes pre-treated with cotinine (100 ng ml^−1) for 2 hours (open squares) were stimulated with P. gingivalis 33277 LPS (0-10^5 ng ml^−1) for 24 hours. Cell-free supernatants were harvested by centrifugation and levels of pro-inflammatory cytokines (A-E) and IL-10 (E) were determined by ELISA. Data are the arithmetic mean±s.d. of 3 experiments.

[12] = test system: NF-κB; assay: NF-κB-inducible SEAP reporter in LPS-stimulated THP-1 Blue cells; type: cell-based; conditions: cotinine 100 ng ml^−1 2 h, LPS 1 μg ml^−1 24 h
Protocol: as §1, §2

[13] = cited from earlier work
[14] = test system: Akt (Ser473); assay: Phosphorylated Akt western blot in monocytes; type: cell-based, human; conditions: P. gingivalis stimulated monocytes; PI3K-dependent
Protocol: as §3

[15] = test system: LPS-stimulated monocytes; assay: Pro-inflammatory cytokine release by LPS-stimulated human monocytes (ELISA); type: cell-based
Protocol: FIGS. 3A-3E. […] Monocytes were pre-treated with cotinine (1000 ng/ml) for 2 hours then stimulated with purified LPS (0 to 1×10^4 ng/ml) for 24 hours.
FIGS. 6A-6E. […] Cells were pre-treated with nicotine or cotinine (100 and 1000 ng/ml, respectively) for 2 hours then stimulated with purified LPS (0 to 1×10^4 ng/ml) for 24 hours. […] FIG. 6A provides data for IFNγ; FIG. 6B provides data for IL-1β, FIG. 6C provides data for IL-6, FIG. 6D provides data for TNF-α, and FIG. 6E provides data for IL-12/IL-23 p40.
Cotinine inhibited the production and release of multiple pro-inflammatory cytokines by monocytes stimulated with Toll-like receptor (TLR)-agonists in a dose-dependent manner. Cells were pre-treated with cotinine for 2 hours then stimulated with a TLR-agonist (purified LPS, 0 to 1×10^4 ng ml^−1) for 24 hours.
Inflammatory response of cotinine-exposed monocytes to P. gingivalis and LPS: In an initial series of experiments, we determined how physiological doses of nicotine and cotinine influenced levels of TNF secreted by monocytes stimulated with LPS. Human monocytes were pre-treated for 90 minutes with nicotine (1 to 1,000 ng/ml; Sigma-Aldrich, Inc.) or cotinine (1 to 10,000 ng/ml; Sigma-Aldrich, Inc.), then stimulated with purified E. coli K-12 LPS (0 to 10 μg/ml; InVivoGen™, San Diego, Calif.). TNF concentrations in 24 hr supernatants were measured by ELISA (eBioscience, San Diego, Calif.). Subsequently, the concentrations of multiple cytokines in 24 hr supernatants of cotinine pre-incubated (1000 ng/ml) LPS-([…]) stimulated monocytes were measured by ELISA (IFN-γ (PBL Biomed Labs, Piscataway, N.J.), IL-1β, IL-6, TNF, IL-10 (all eBioscience), and IL-12/IL-23 p40 (R&D Systems, Minneapolis, Minn.).
Primary monocytes were pre-treated with nicotine (0-100 ng ml^−1) or cotinine (0-1000 ng ml^−1) then stimulated with the Gram negative periodontal pathogen P. gingivalis (MOI=0-10); purified E. coli K-12 LPS (0-1 μml^−1; InVivoGen™, San Diego, Calif.); or purified P. gingivalis 33277 LPS for 20 h. Primary monocytes were also pre-treated with cotinine (100 ng ml^−1) then stimulated with increasing doses of LPS for 20 h. Cell-free supernatants were harvested by centrifugation and cytokine levels (TNF, IL-6, IL-10, IL-12/IL-23 p40, as appropriate) were determined by ELISA (eBioscience, San Diego, Calif. or R&D Systems, Minneapolis, Minn.).

[16] = cotinine 100 ng ml^−1 2 h, P. gingivalis 33277 LPS 0-10^5 ng ml^−1 24 h
[17] = cotinine 1000 ng/ml 2 h, LPS 0 to 1×10^4 ng/ml 24 h

Cn1cc(C2=C(c3ccc(Cl)cc3Cl)C(=O)NC2=O)c2ccccc21 [SB216763]
IL-10 production ([1]; GSK-3β inhibitor SB216763 6 μM, LPS): enhances IL-10 production in response to LPS
Potency as inducer of IL-10 relative to cotinine ([1]; SB216763 versus cotinine 10 ng ml^−1, p<0.05): significantly less potent inducer of IL-10 than cotinine; also recorded: less potent than even low doses of cotinine

CN1C(=O)CC[C@H]1c1cccnc1 [cotinine, (S)-1-methyl-5-(3-pyridinyl)-2-Pyrrolidinone]
Release of free radicals from neutrophils [2]: suppresses the release of free radicals from neutrophils
Levels of phosphorylated (inactive) GSK3-β [3]: augments
TNF release compared to cells stimulated with P. gingivalis alone [4]: equally as effective as nicotine; also recorded: produce significantly less TNF-α
IL-10 release ([5]; cotinine 0 to 10,000 ng/ml 2 h, purified LPS 24 h): increased the production and release; also recorded: enhanced production; also recorded: increases the release
IL-10 production ([5]; cotinine 100 ng ml^−1 2 h, P. gingivalis 33277 LPS 24 h): enhancing production; also recorded: augments IL-10 production
PIP3 levels (PI3K activation) [6]: potently augments the activation of PI3K; also recorded: increased PIP3 levels
Viability of THP-1 or THP-1 Blue cells compared to LPS alone [7]: no statistically significant effect
Upregulation of nicotinic receptor expression in the brain [8]: does not appear to upregulate
Systemic concentration relative to nicotine ([9]; humans): ten-fold
Terminal elimination half-life [9]: sixteen
Systemic levels in second-hand smokers ([9]; second-hand smokers): 1 to 15 ng/mL
Mean concentration in smokers [9]: 200 to 500 ng/mL
Striatal dopamine release [10]: evokes striatal dopamine release
Viability of primary monocytes compared to P. gingivalis alone ([11]; cotinine 0 to 10^5 ng ml^−1): no statistically significant effect
Viability of primary monocytes compared to LPS alone ([11]; cotinine 100 ng ml^−1): no statistically significant effect
LPS-induced NF-κB (SEAP activity) [12]: not affected; also recorded: not influenced
Vasoactivity (heart rate, blood pressure, skin temperature) ([13]; cotinine infusions in humans): may not be vasoactive
Addictiveness ([13]; in vivo): non-addictive
Safety of administration to humans ([13]; levels as high as 10 times that attained from cigarette smoking): safe
IL-10 production ([1]; cotinine pre-treatment 2 h, LPS 1 μg ml^−1 24 h): augment IL-10 production
Levels of phosphorylated (active) Akt [14]: enhances
IL-1β release [15, 16]: dramatically suppresses
IL-6 release [15, 16]: dramatically suppresses
IL-12/IL-23 p40 subunit release [15, 16]: dramatically suppresses
TNF-α release [15, 16]: dramatically suppresses
IFN-γ production [15, 17]: suppressed
IL-1β production [15, 17]: suppressed
IL-6 production [15, 17]: suppressed
IL-12/IL-23 p40 production [15, 17]: suppressed
TNF-α production [15, 17]: suppressed

CNC1(C)C2CCC(C2)C1(C)C (centres unmarked) [mecamylamine]
Effect of non-selective nAChR antagonist on cotinine-induced inflammatory suppression ([4]; mecamylamine 10 μM pre-incubation): nAChR-dependent phenomenon

CN1CCC[C@H]1c1cccnc1 [nicotine, (S)-3-(1-methyl-2-pyrrolidinyl)pyridine, reference compound]
TNF release compared to cells stimulated with P. gingivalis alone [4]: inhibits the release of TNF; also recorded: produce significantly less TNF-α
PIP3 levels (PI3K activation) [6]: increased PIP3 levels
Terminal elimination half-life [9]: two
Fraction of nicotine converted to cotinine ([9]; metabolized by the liver): up to 80%
Mean concentration in smokers [9]: ~30 ng/mL
